Laboratory results from patent publication US20160137639A1, “TRIAZOLE-ISOXAZOLE COMPOUND AND MEDICAL USE THEREOF” (JAPAN TOBACCO INC., priority 2012, published 2016).
Like-named read-outs stand apart in the source and are kept apart here.

Legend:
mouse RORγ = biological target: T1, mouse RORγ (Mus musculus, UniProt P51450); test: Luciferase reporter gene assay of inhibitory effect against RORγ transcriptional activity (GAL4-mRORγ plasmid in CHO cells); type: cell-based
T1 construct: mouse, NM_011281.2 and from Ile251 to Lys516; expressed in transfected cells; host or cells: CHO cells (transient co-transfection with pG5-Luc reporter)
T1 sequence (P51450 251-516): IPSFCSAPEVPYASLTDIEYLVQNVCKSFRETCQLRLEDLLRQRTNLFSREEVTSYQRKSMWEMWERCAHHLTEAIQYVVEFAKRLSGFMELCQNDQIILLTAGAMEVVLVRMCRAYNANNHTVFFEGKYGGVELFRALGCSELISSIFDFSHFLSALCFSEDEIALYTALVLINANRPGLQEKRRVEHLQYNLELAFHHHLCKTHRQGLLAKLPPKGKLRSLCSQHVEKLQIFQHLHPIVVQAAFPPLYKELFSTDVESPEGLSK
How it was run: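 CHO cells transiently co-transfected with GAL4-mouse RORγ LBD (Ile251–Lys516) and GAL4-dependent luciferase reporter; eight compound concentrations, 0.1% DMSO, 2 days at 37 °C. Luminescence as %-of-vehicle control; EC50 by curve fit, cytotoxic concentrations excluded.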

human RORγ = biological target: T2, human RORγ (Homo sapiens, UniProt P51449); test: Luciferase reporter gene assay of inhibitory effect against RORγ transcriptional activity (GAL4-hRORγ plasmid in CHO cells); type: cell-based
T2 construct: human, NM_005060.3 and from Ser253 to Lys518; expressed in transfected cells; host or cells: CHO cells (transient co-transfection with pG5-Luc reporter)
T2 sequence (P51449 253-518): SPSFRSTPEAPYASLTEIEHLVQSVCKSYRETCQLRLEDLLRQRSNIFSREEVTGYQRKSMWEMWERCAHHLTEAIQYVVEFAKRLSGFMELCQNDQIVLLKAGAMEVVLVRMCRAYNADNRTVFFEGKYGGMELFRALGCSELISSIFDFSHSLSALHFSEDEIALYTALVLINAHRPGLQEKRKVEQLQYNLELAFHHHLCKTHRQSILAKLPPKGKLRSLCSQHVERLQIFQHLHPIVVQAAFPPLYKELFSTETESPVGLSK

Row | SMILES | EC50 (mouse RORγ; read-out: LUC EC50 (μM) mRORg) [µM] | EC50 (human RORγ; read-out: LUC EC50 (μM) hRORg) [µM] | EC50 (mouse RORγ; read-out: LUC EC50 mRORg) [µM] | EC50 (human RORγ; read-out: LUC EC50 hRORg) [µM]
1 | CC(=O)N1C[C@H](C(=O)Nc2ccc(C)cc2C)[C@@H](c2nnc(CCOC(C)(C)C(F)(F)F)n2C2CC2)C1 (racemic) [Example F-325] | < 3 | < 3 |  | 
2 | COc1cc(C(F)(F)F)ccc1CNC(=O)CCc1nnc(CCC(C)C)n1C1CC1 [Example F-263] | < 3 | < 3 |  | 
3 | Cc1c(Cl)cccc1NC(=O)CCc1nnc(CCC(C)(C)C(=O)N(C)C)n1C1CC1 [Example F-239] | > 3 | > 3 |  | 
4 | Cc1ccc(NC(=O)C[C@H](CCC(=O)O)c2noc([C@H]3C[C@@H](CC(C)(C)CO)C3)c2C2CC2)c(Cl)c1 [Example F-716] |  |  | < 3 | < 3
5 | Cc1ccc(NC(=O)C[C@H](CCO)c2nnc([C@H]3C[C@@H](CC(C)C)C3)n2C2CC2)c(C)c1 [Example F-361] | < 3 | < 3 |  | 
6 | Cc1ccc(NC(=O)C[C@H](CCC(=O)O)c2noc(-c3cc(CCC(C)(C)C)on3)c2C2CC2)c(F)c1 [Example E-31] | < 3 | < 3 |  | 
7 | CCCOc1ccc(-c2nnc(CCC(=O)Nc3ccc(C)cc3C)n2C2CC2)cc1 [Example F-463] | < 3 | > 3 |  | 
8 | Cc1cc(F)ccc1NC(=O)C[C@H](CCO)c1nnc([C@H]2C[C@@H](CC(F)(F)F)C2)n1C1CC1 [Example F-588] |  |  | < 3 | > 3
9 | Cc1ccc(NC(=O)[C@@H](CCC(=O)O)Cc2noc([C@H]3C[C@@H](CC(C)C)C3)c2C2CC2)c(C)c1 [Example F-671] |  |  | < 3 | < 3
10 | CNC(=O)CO[C@@H](CC(=O)Nc1ccc(C)cc1C)c1nnc([C@H]2C[C@@H](CC(C)C)C2)n1C1CC1 [Example F-480] | < 3 | < 3 |  | 
11 | CC(=O)N1C[C@H](C(=O)Nc2ccc(C)cc2C)[C@@H](c2nnc(CCC(C)(C)C)n2C2CC2)C1 (racemic) [Example F-223] | < 3 | < 3 |  | 
12 | Cn1c(CCC(=O)Nc2cccc3ccccc23)nnc1C1Cc2ccccc2C1 [Example F-8] | < 3 | > 3 |  | 
13 | CC(=O)N1C[C@H](C(=O)Nc2ccc(Cl)cc2F)[C@@H](c2nnc([C@H]3C[C@@H](CC(C)C)C3)n2C2CC2)C1 [Example F-604] |  |  | < 3 | < 3
14 | Cc1c(Cl)cccc1NC(=O)CCc1nnc(C#CC(C)C)n1C1CC1 [Example F-158] | < 3 | > 3 |  | 
15 | C=CC[C@@H](CC(=O)Nc1ccc(C)cc1C)c1nnc(CCCC(C)(C)C)n1C1CC1 [Example F-389] | < 3 | < 3 |  | 
16 | Cc1ccc(NC(=O)C[C@H](OCCO)c2nnc([C@H]3C[C@@H](CC(C)C)C3)n2C2CC2)c(C)c1 [Example F-434] | < 3 | < 3 |  | 
17 | CC(C)(C)C[C@H]1C[C@@H](c2onc([C@@H](CCC(=O)O)CC(=O)NS(=O)(=O)C3CC3)c2C2CC2)C1 [Example F-722] |  |  | > 3 | > 3
18 | Cc1c(Cl)cccc1NC(=O)CCc1nnc(C2CC(C)C2)n1C1CC1 (mixture of isomers) [Example F-168] | < 3 | > 3 |  | 
19 | CC(=O)N1C[C@H](C(=O)Nc2ccc(C)cc2C)[C@@H](c2nnc(CCC(C)C)n2C2CC2)C1 (racemic) [Example F-162] | < 3 | > 3 |  | 
20 | CC(=O)N(CCc1nnc(CCC(=O)Nc2cccc(Cl)c2C)n1C1CC1)C(C)C [Example F-233] | > 3 | > 3 |  | 
21 | C=CCC(CC(=O)Nc1cccc(Cl)c1C)c1nnc(CCC(C)C)n1C1CC1 (racemic) [Example F-193] | < 3 | < 3 |  | 
22 | Cc1c(Cl)cccc1NC(=O)CC(CO)c1nnc(CCC(C)C)n1C1CC1 (racemic) [Example F-167] | < 3 | < 3 |  | 
23 | CC(C)(C)Cc1cc(-c2onc([C@@H](CCC(=O)O)CC(=O)Nc3ccc(Cl)cc3Cl)c2C2CC2)no1 [Example E-58, Sodium (S)-4-[4′-cyclopropyl-5-(2,2-dimethyl-propyl)-[3,5′]biisoxazolyl-3′-yl]-5-(2,4-dichloro-phenylcarbamoyl)-pentanoate] | < 3 | < 3 |  | 
24 | CCN(CC)C(=O)CN1C[C@H](C(=O)Nc2ccc(C)cc2C)[C@@H](c2nnc([C@H]3C[C@@H](CC(C)C)C3)n2C2CC2)C1 [Example F-653] |  |  | < 3 | < 3
25 | COc1cc(C)ccc1CNC(=O)CC(CCO)c1nnc(CCCC(C)C)n1C1CC1 (racemic) [Example F-202] | < 3 | < 3 |  | 

Row | SMILES | EC50 (mouse RORγ; read-out: LUC EC50 (μM) mRORg) [µM] | EC50 (human RORγ; read-out: LUC EC50 (μM) hRORg) [µM] | EC50 (mouse RORγ; read-out: LUC EC50 mRORg) [µM] | EC50 (human RORγ; read-out: LUC EC50 hRORg) [µM]
26 | CCc1cccc(NC(=O)CCc2nnc(CCC(C)C)n2C2CC2)c1 [Example F-132] | > 3 | > 3 |  | 
27 | Cc1noc(NC(=O)CCc2nnc(CCC(C)C)n2C2CC2)c1C [Example F-106] | > 3 | > 3 |  | 
28 | CNC(=O)N1C[C@H](C(=O)Nc2ccc(C)cc2C)[C@@H](c2nnc(CCCC(C)(C)C)n2C2CC2)C1 (racemic) [Example F-446] | < 3 | < 3 |  | 
29 | CCc1ccccc1NC(=O)CCc1nnc(CCC(C)C)n1C1CC1 [Example F-72] | > 3 | > 3 |  | 
30 | CCn1c(CCC(=O)Nc2ccc(C)cc2C)nnc1CCC1CCCCC1 [Example F-40] | < 3 | < 3 |  | 
31 | Cc1ccc(NC(=O)CC(CCN2C(=O)c3ccccc3C2=O)c2nnc(CCCC(C)C)n2C2CC2)c(C)c1 (racemic) [Example F-272] | < 3 | < 3 |  | 
32 | Cc1ccc(NC(=O)C[C@H](C[C@@H](C)O)c2nnc([C@H]3C[C@@H](CC(C)C)C3)n2C2CC2)c(C)c1 [Example F-560] |  |  | < 3 | < 3
33 | CCn1c(CCC(=O)NC23CC4CC(CC(C4)C2)C3)nnc1C1Cc2ccccc2C1 [Example F-24] | > 3 | > 3 |  | 
34 | Cc1ccc(NC(=O)[C@@H]2CC(C)(O)C[C@H]2c2nnc([C@H]3C[C@@H](CC(C)C)C3)n2C2CC2)c(C)c1 (single isomer, unassigned) [Example F-564] |  |  | < 3 | < 3
35 | CC(=O)N1C[C@H](C(=O)Nc2ccc(C)cc2C)[C@@H](c2nnc(-c3ccc(CC(C)C)cc3)n2C2CC2)C1 [Example F-406] | < 3 | < 3 |  | 
36 | Cc1ccc(NC(=O)[C@@H](CC(=O)O)Cc2noc([C@H]3C[C@@H](CC(C)C)C3)c2C2CC2)c(C)c1 [Example F-668] |  |  | < 3 | > 3
37 | CC(=O)N1C[C@H](C(=O)Nc2cc(C)ccc2C)[C@@H](c2nnc(CCCC(C)(C)C)n2C2CC2)C1 (racemic) [Example F-331] | < 3 | < 3 |  | 
38 | Cc1cc(NC(=O)C[C@H](CC(=O)O)c2noc([C@H]3C[C@@H](CC(C)C)C3)c2C2CC2)no1 [Example F-670] |  |  | < 3 | > 3
39 | Cc1ccc(NC(=O)CC(Cc2cccc(=O)[nH]2)c2nnc([C@H]3C[C@@H](CC(C)C)C3)n2C2CC2)c(C)c1 (mixture of isomers) [Example F-505] |  |  | > 3 | < 3
40 | COc1cc(C)ccc1CNC(=O)CCc1nnc(CCCC(C)C)n1C1CC1 [Example F-217] | < 3 | < 3 |  | 
41 | Cc1c(CO)cccc1NC(=O)CCc1nnc(CCC(C)C)n1C1CC1 [Example F-87] | > 3 | > 3 |  | 
42 | Cc1ccc(CNC(=O)CCc2nnc(CCC(C)C)n2C2CC2)c(C)c1 [Example F-119] | < 3 | < 3 |  | 
43 | Cc1ccc(NC(=O)CCc2noc(C3(O)CC(CC(C)(C)C)C3)c2C2CC2)c(Cl)c1 (mixture of isomers) [Example F-732] |  |  | < 3 | < 3
44 | CCc1cccc(NC(=O)CCc2nnc(CCC(C)C)n2C2CC2)c1C [Example F-147] | < 3 | > 3 |  | 
45 | Cc1cc(Cl)ccc1NC(=O)C[C@H](CCO)c1nnc(C2CC3(CCC(F)(F)CC3)C2)n1C1CC1 [Example F-624] |  |  | < 3 | < 3
46 | Cc1ccc(NC(=O)C(C)C(CCO)c2nnc([C@H]3C[C@@H](CC(C)C)C3)n2C2CC2)c(C)c1 (single isomer, unassigned) [Example F-492] | > 3 | > 3 |  | 
47 | Cc1ccc(NC(=O)C(C)C(CCOCc2ccccc2)c2nnc([C@H]3C[C@@H](CC(C)C)C3)n2C2CC2)c(C)c1 (mixture of isomers) [Example F-488] | < 3 | > 3 |  | 
48 | CC(=O)NCC(CC(=O)Nc1ccc(C)cc1C)c1nnc(CCCC(C)C)n1C1CC1 (racemic) [Example F-277] | < 3 | > 3 |  | 
49 | Cc1ccc(NC(=O)C[C@H](OC(C)C)c2nnc(-c3cc(CC(C)C)on3)n2C2CC2)c(C)c1 [Example F-575] |  |  | < 3 | < 3
50 | CCOC(=O)CCc1nnc(CCC(=O)Nc2cccc(Cl)c2C)n1C1CC1 [Example F-183] | > 3 | > 3 |  | 
